Test results: patent US20250207175A1, “METHOD FOR DETECTING CONTAMINATING CARBOXYLESTERASE ACTIVITY” (Boehringer Ingelheim International GmbH, priority 2022, published 2025)

What was measured:
[1] = type: physicochemical
Description: In order to be able to determine the enzymatic activity, a substrate, 1-octanoyloxy-pyrene-3,6,8-trisulfonic acid trisodium salt (OPTS), was chosen. Its hydrolytic product, 1-hydroxypyrene-3,6,8-trisulfonic acid trisodium salt (HPTS), can be detected by fluorescence spectroscopy. The change in the fluorescence signal over time is directly related to the change in the concentration of free fluorophore. The conversion was made possible by setting up a calibration curve with a subsequent linear fit (R^2≥0.99). The experiments of the kinetics measurements with the OPTS/4-MUD substrates assay were performed in duplicates. The reaction mixture without the protein of interest, which served as the respective control, was subtracted from the protein-containing batch. The buffer used for OPTS measurements (hydrophilic substrate) contained 0.3 M HOAc, 0.3 M MES, 0.6 M TRIS and 0.6 M NaCl (4×AMT buffer; acetate, MES, TRIS). For 4-MUD substrate measurements (lipophilic substrate) 0.04 M CHAPS was added in addition. The buffer (AMT) was prepared in four-fold concentration (4×AMT) and was added at 25% (v/v) to the reaction mix. All measurements were carried out in multiwell plates with a preparation volume of 300 μL (75 μL 4×AMT buffer, 30 μL substrate, 75 μL enzyme-containing solution, x μL additive, 300 μL ad. H2O) Unless otherwise stated, all fluorescence spectroscopic measurements were performed using 96-well, clear-bottom, non-binding plates (Greiner, Austria) on a SpectraMax M3 PlateReader (Molecular Device, USA) and recorded using SoftMax Pro 7.0.3 software (Molecular Device, USA). The OPTS assay measurements were typically taken at 25° C., λex=403 nm and λem=512 nm and the 4-MUD assay measurements were taken at 25° C., λex=330 nm and λem=450 nm. For evaluation, the detected fluorescence signal for a reaction mix without protein of interest (control) was subtracted from the reaction mix with protein of interest (e.g. DS). Hydrolysis of the substrate has been measured by detecting the fluorescence intensity of the released chromophore (4-MU or HPTS) immediately following mixing in real-time for a few minutes up to 5 hours depending on fluorescence intensity. The changes in the fluorescence signal over time were subsequently converted to hydrolytic activity using previously established calibration curves with a linear fit (R^2≥0.99).
The fluorophore HPTS can be released from the substrate (here esterified caprylic acid) by enzymatic or chemical hydrolysis (acidic and alkaline hydrolysis). In order to assess the influence of pH on aqueous solutions of the substrate, 225 μL of a 33.3 μM OPTS solution was added to 75 μL each of AMT buffer (with pH=5.5 and pH=8) and the kinetics of fluorophore release were recorded for two hours.
There is a clear difference in the slope of the fluorescence signals for the different pH values. Based on the recorded calibration curves the autohydrolysis rate at pH 5.5 was calculated as 1.58*10^−7 units (μmol*min-1) and the autohydrolysis rate at pH 8.0 was calculated as 3.48*10^−6 units. Thus, the hydrolysis rate at pH 8 is about 22-times higher compared to pH 5.5, showing that hydrolysis of the fluorogenic substrate can be observed over time, at basic pH, but only at a very low level at pH 5.5. […]

[2] = Solubility of OPTS in H2O (stock solutions, verified by light scattering); type: physicochemical; details: water, aqueous stock solution
Procedure: Stock solutions of the fluorogenic substrate in water were prepared. Aqueous solutions with an OPTS concentration ≥2.0 mM could be prepared. The solubility could be verified by light scattering experiments.

[3] = OPTS assay of histidine-containing buffer controls; details: histidine concentrations of less than 200 μM; data not shown
Procedure: 9 different antibody (Ab1-Ab9) samples were tested using the OPTS assay. As a control, measurements were performed with the respective same buffer solution as used in the antibody sample.
Since histidine has been reported previously to mediate hydrolytic activities in aqueous solutions similar to esterases (Delort, Nguyen-Trung et al. 2006, Mason, McCracken et al. 2010, Amano, Kobayashi et al. 2014, Xu, Chen et al. 2017), samples were dialysed against 0.002% NaCl using a two-step dialysis with a molecular weight cut-off (MWCO) of 20K. For preparative dialysis, the pre-wettened dialysis cassette was filled with 2 ml antibody solution and placed in a beaker filled with 1 L NaCl (0.002% w/v) solution with gentle stirring. After one hour the 1 L NaCl solution was replaced with fresh NaCl (0.002% w/v) solution and dialysed for another two hours with gentle stirring. […] In the following the assay was performed using dialysed drug substance samples. The same solution (final solution outside the dialysis cassette) was used as control sample to be subtracted from the test sample.

[4] = tested on: lipase activity; details: FIG. 10 of WO 2022 049294 A1; cited from earlier work

CCCCCCCC(=O)Oc1cc(S(=O)(=O)[O-])c2ccc3c(S(=O)(=O)[O-])cc(S(=O)(=O)[O-])c4ccc1c2c43.[Na+].[Na+].[Na+] [OPTS, 1-octanoyloxy-pyrene-3,6,8-trisulfonic acid trisodium salt]
stability of OPTS in solvent (autohydrolysis) [1]: more stable in DMSO compared to H2O
autohydrolysis rate at pH 5.5 ([1]; 25 μM OPTS, AMT buffer pH 5.5, two hours): 1.58*10^−7 units (μmol*min-1)
autohydrolysis rate at pH 8.0 ([1]; 25 μM OPTS, AMT buffer pH 8.0, two hours): 3.48*10^−6 units
hydrolysis rate at pH 8 compared to pH 5.5 ([1]; autohydrolysis of OPTS): about 22 times
autohydrolysis of OPTS compared to 4-MUD ([1]; particularly at pH 8.0): more critical
solubility [2]: ≥ 2000 µM

N[C@@H](Cc1c[nH]cn1)C(=O)O [histidine]
activity of histidine buffer component in the OPTS assay [3]: low 10^−7

polyethylene glycol tert-octylphenyl ether [Triton X-100]
effect of detergent on the 4-MUD assay [4]: inhibited
